In publication PMC7822874, “Chemoprotective antimalarials identified through quantitative high-throughput screening of Plasmodium blood and liver stage parasites” (Scientific Reports, 2021):
Peptide text beside a SMILES is read from it. * marks the point of attachment. Boc = CC(C)(C)OC(=O)*; OBn = c1ccc(CO*)cc1

These compounds were tested on Plasmodium falciparum Dd2 asexual blood stage parasites (assay: microbe, parasite or virus in culture). Settings: Plasmodium falciparum, DD2, Erythrocyte, 72 h.
Parameters: species or system Plasmodium falciparum Dd2 in human erythrocytes; single determination (one 11-point concentration-response curve)

| Compound | AC50 [µM] |
| --- | --- |
| O=C(CN(C(=O)c1cccc([N+](=O)[O-])c1)C1CCCCC1)Nc1ccc(Cl)c([N+](=O)[O-])c1 [MLS000560351-01] | 13.3 |

Same assay, conditions: Plasmodium falciparum, DD2, Erythrocyte, 72 h; read-out: AC50

| Compound | AC50 [µM] |
| --- | --- |
| CCOc1cccc(C2c3[nH]c4ccccc4c3CCN2C(=O)CSCc2ccc(F)cc2)c1 (stereo not shown) [NCGC00134633-01] | 15 |
| CCn1cc(C(=O)NCCCN2CCCC(C)C2)c(=O)c2cc([S+](=O)([O-])N(C)C3CCCCC3)ccc21 (stereo not shown) [NCGC00109162-01] | 8.41 |
| CC(C)(C)NC(=O)c1ccc(-c2nnc3ccc(NC(=O)C4CC4)cn23)cc1 [NCGC00429854-01] | 9.44 |
| COc1cc(NC(=O)Cn2c(=O)n(CC3CCC(C(=O)NCCc4ccccc4)CC3)c(=O)c3ccccc32)cc(OC)c1 (stereo not shown) [NCGC00106543-01] | 5.96 |
| CC(C)(C)OC(=O)N1CCC(c2c(C(=O)NCCN3CCc4ccccc4C3)cnn2-c2ccc(F)cc2F)CC1 [NCGC00127087-01] | 5.31 |
| O=C(NC1CC1)c1ccccc1OCC1CCCN(Cc2cccc3[nH]ccc23)C1 (stereo not shown) [NCGC00427156-01] | 5.96 |
| CC1CCN(C(=O)CSc2nc(-c3ccc(C(C)C)cc3)no2)CC1 [NCGC00127906-01] | 1.19 |
| CC(C)CC(NC(=O)C(NC(=O)OC(C)(C)C)C(C)C)C(=O)NC(CCC(=O)OCc1ccccc1)C(N)=O (stereo not drawn) [MLS001304946-01] (Boc-Val-Leu-Glu(OBn)-NH2; configuration not given here) | 8.41 |
| CCc1ccc(-c2nn(CC(=O)NC3CCCCC3)c3c2cnc2ccc(OC)cc23)cc1 [NCGC00130391-01] | 9.44 |
| Nc1nonc1-n1nnc(C(=O)N/N=C/c2ccc(F)cc2)c1-c1ccc2c(c1)OCO2 [MLS001142639-01] | 0.335 |
| COc1ccc(/C=C\c2onc(C)c2[S+](=O)([O-])N2CCC(C(=O)Nc3ccc(C)cc3C)CC2)cc1 [NCGC00109197-01] | 0.841 |
| CCN(CCCNC(=O)c1nn(-c2ccc(OC)c(Cl)c2)c(=O)c2c1c1ccccc1n2C)c1cccc(C)c1 [NCGC00108898-01] | 15 |
| CCOc1ccc(C2C(C(=O)Nc3ccccc3)=C(C)N=c3sc(=Cc4cccc(OCC(=O)O)c4)c(=O)n32)cc1 (stereo not shown) [MLS000705052-01] | 5.31 |
| Cc1ccc(NC(=O)N2CCC(OC3CCN([S+](C)(=O)[O-])CC3)CC2)cc1F [NCGC00445040-01] | 15 |
| Oc1ccc(Cl)cc1CNCC1CCCCC1 [MLS002207458-01] | 4.22 |
| Cc1cc(C(=O)Nc2cnn(Cc3ccc(Cl)cc3Cl)c2)no1 [MLS000087313-01] | 9.44 |
| CCOc1ccccc1NC(C)C(=O)Nc1cc(C(F)(F)F)ccc1N1CCOCC1 (stereo not shown) [MLS000336343-01] | 2.66 |
| CS(=O)(=O)c1ccc(C(=O)Nc2ccc(-c3nc4ccccc4[nH]3)cc2)cc1 [MLS001166841-01] | 7.5 |
| N#Cc1c2c(c(NCc3ccco3)n3c1nc1ccccc13)CCC2 [MLS000109113-01] | 2.37 |
| COc1ccc(C(O)(CCC(C)C)C(CN2CCOCC2)c2ccccc2)cc1 (stereo not shown) [MLS001198958-01] | 5.31 |
| O=C1CC2(CCN(Cc3cccs3)CC2)Oc2cc(Cl)ccc21 [NCGC00476854-01] | 5.31 |
| Cc1cc(C(=O)CN2C(=O)NC(c3ccccc3)(c3ccccc3)C2=O)c(C)n1Cc1ccco1 [MLS000056256-01] | 8.41 |
| Oc1ccccc1CN1CCOC[C@H]1c1nc(-c2ccc(C(F)(F)F)cc2)c[nH]1 [NCGC00394286-01] | 4.85 |
| CCOc1ccc(-n2c(SCC(N)=O)nc3sc4c(c3c2=O)CCN(C)C4)cc1 [MLS000332254-01] | 15 |
| CN(Cc1ccccc1)Cc1cc(C[C@@H]2CC[C@H](O)[C@@H](CNCc3ccccc3)O2)no1 [NCGC00393466-01] | 4.73 |

| Compound | AC50 [µM] |
| --- | --- |
| O=C(CCC1CCCN(Cc2cccn2-c2cccnc2)C1)Nc1ccccc1F (stereo not shown) [NCGC00427855-01] | 6.68 |
| CCN(C(=O)Cn1c(=O)n(Cc2ccc3c(c2)OCO3)c(=O)c2ccc(C(=O)NC3CCCCC3)cc21)c1cccc(C)c1 [NCGC00108796-01] | 6.68 |
| COc1ccc(NC(=O)c2c(C)oc3ccc(O)c(CN4CCN(Cc5ccccc5)CC4)c23)cc1 [NCGC00115648-01] | 2.66 |
| CCOCCCNc1nc2cc(OC)c(OC)cc2c2nc(-c3ccccc3)nn12 [NCGC00112857-01] | 0.211 |
| O=C(c1ccc2c(c1)OCO2)N1CCC2(CC1)COc1ccccc1CN2 [NCGC00477555-01] | 5.31 |
| COc1cc(Br)c(C2CC(=O)Nc3cc4c(cc32)OCCO4)cc1OC (stereo not shown) [NCGC00107079-01] | 2.37 |
| COc1ccc2c(c1OC)C(=O)N1N=C(c3ccc(O)cc3)CC21 (stereo not shown) [MLS000570475-01] | 16.8 |
| CC1(c2ccccc2)N(Cc2cccnc2)C(=O)OC12CCN(C(=O)Cc1ccc(Cl)cc1)CC2 (stereo not shown) [NCGC00415462-01] | 13.3 |
| CC(C)(C)n1nnnc1C(c1cccnc1)N(Cc1ccccc1)Cc1ccco1 (stereo not shown) [MLS000528003-01] | 5.31 |
| Cc1nnc2c(N3CCN(c4ccccc4)CC3)nc3ccc(C(=O)c4ccccc4)cc3n12 [NCGC00107547-01] | 0.841 |
| O=C(c1cc(C(=O)NCc2ccccc2)c(=O)n(Cc2ccccc2)c1)c1cc(Br)ccc1O [MLS000402314-01] | 4.73 |
| O=C(CNC1CC1)Nc1cc(C(F)(F)F)ccc1Cl [MLS001010951-01] | 15 |
| COc1cccc(NC(=O)CN(C)C(=O)c2oc3c(ccc4ccccc43)c2C)c1 [MLS001142056-01] | 0.75 |
| CCOc1ccc(NC(=O)Nc2cc(OCC(F)(F)F)cc(OCC(F)(F)F)c2)cc1 [MLS000391697-01] | 13.3 |
| O[C@]1(c2ccccc2)CCN(Cc2ccncc2)C[C@H]1N1CCCC1 [NCGC00442600-01] | 9.44 |
| CC(C)CCN1CCC(N2CCN([S+](=O)([O-])c3ccc4c(c3)CCCC4)CC2)C1=O (stereo not shown) [NCGC00472995-01] | 9.44 |
| COc1ncccc1-c1nc(-c2c(C)noc2C)cc2c1cc(-c1ccccc1)n2C [NCGC00417163-01] | 13.7 |
| Cc1cccc(-c2cc(C(=O)Nc3ccncc3)c3ccccc3n2)c1 [MLS001147429-01] | 8.41 |
| CCOc1ccc(/C=C/C(=O)Nc2ccc3nc(N(CC)CC)cc(C)c3c2)cc1OC [NCGC00104284-01] | 1.88 |
| Cc1ccc(C)c(C(=O)N2CCC3(CC2)NC(c2ccc(Cl)cc2)=NO3)c1 [NCGC00447013-01] | 9.44 |
| O=C(C1=C[C@H](c2csc3ccccc23)C[C@H](OCCCCO)O1)N1CCN(Cc2ccc3c(c2)OCO3)CC1 [MLS000834451-01] | 13.3 |
| COc1ccc(-c2cc([C@H]3CN4CC[C@H]3C[C@@H]4CNC(=O)NC3CCCCC3)n(C)n2)cc1 [NCGC00399776-01] | 1.88 |
| CCOC(=O)C1CCCN(C(=O)c2ccc3c(c2)N(Cc2ccccc2)C(=O)c2ccccc2[S+]3(=O)[O-])C1 (stereo not shown) [NCGC00109839-01] | 6.68 |
| CCn1c(SCc2ccc(C#N)cc2)nnc1-c1ccc(S(=O)(=O)N2CCCCC2)cc1 [MLS000032588-01] | 6.68 |
| O=C(Cc1ccccc1F)N1CCOc2ccc(CN3CCc4ccccc4C3)cc2C1 [NCGC00471206-01] | 13.3 |

| Compound | AC50 [µM] |
| --- | --- |
| O=C(CSc1nc(-c2ccccc2)no1)N1CCN(c2ccc(F)cc2)CC1 [NCGC00127880-01] | 4.22 |
| Fc1ccc(Oc2nc(-c3ccccn3)nc3ccccc23)cc1 [MLS000769507-01] | 13.3 |
| Cc1ncsc1CN1CCCN(Cc2ccncc2)C(c2ccccc2)CC(=O)NCC1 (stereo not shown) [NCGC00467186-01] | 8.41 |
| Cn1cccc1CN1C[C@@H](COc2ccncc2)[C@H](c2ccccn2)C1 [NCGC00468708-01] | 13.3 |
| COc1ccc(C2=C(C(C)=O)Sc3nnc(-c4ccc(Cl)cc4)n3N2C(C)=O)cc1OC [NCGC00137262-01] | 3.76 |
| COc1ccc(C)cc1NC(=O)N1CCCC2(C1)Nc1cccnc1N=C2NC1CCCC1 (stereo not shown) [NCGC00440441-01] | 6.68 |
| CCOC(=O)N1CCc2c(sc3c2c(=O)n(Cc2ccccc2)c(=O)n3Cc2ccccc2Cl)C1 [NCGC00111943-01] | 4.73 |
| CC(=O)Nc1cccc(C(=O)N2CCC3(CC2)NC(c2ccc(C)cc2)=NO3)c1 [NCGC00446797-01] | 0.841 |
| CN(C)CCN1C(=O)c2oc3ccc(Cl)cc3c(=O)c2C1c1cccc(Br)c1 (stereo not shown) [MLS000862131-01] | 0.531 |
| COc1ccc(C(=O)Nc2nc3c(s2)C[C@@H]2[C@](C)(CO)[C@H](O)CC[C@@]2(C)[C@@H]3CC(=O)NCc2ccco2)cc1 [NCGC00421299-01] | 2.66 |
| OC(CNCC(c1ccco1)N1CCCCC1)c1ccccc1 (stereo not shown) [MLS000097545-01] | 5.96 |
| COc1ccccc1N1CCN(CCCNC(=O)c2cnn(-c3cccc(Cl)c3)c2C2CCN(C(=O)OC(C)(C)C)CC2)CC1 [NCGC00126882-01] | 2.11 |
| O=C(NCc1ccccc1)c1ccccc1OC1CN(Cc2ccc(O)c(F)c2)C1 [NCGC00458090-01] | 15 |
| CCc1c(C)c2ccc3c(c2oc1=O)CN(Cc1ccccc1)CO3 [NCGC00125086-01] | 2.11 |
| COC(=O)c1cc(C(=O)c2ccc(Cl)cc2Cl)cn1C [MLS000546235-01] | 13.3 |
| Cc1cccc(-c2cc(C3CCN([S+](=O)([O-])c4cccc(C#N)c4)CC3)[nH]n2)c1 [NCGC00433033-01] | 15 |
| COc1ccc(CCN(C)C(=O)CC(c2cccc(F)c2)c2cn(C)c3ccccc23)cc1OC (stereo not shown) [NCGC00473446-01] | 8.41 |
| O=C(NC(S)=Nc1ccc(NC(=O)c2cccs2)cc1)c1ccco1 [MLS000567605-01] | 9.44 |
| O=C(Nc1ccsc1C(=O)NC1CCCCC1)c1ccc(F)cc1 [MLS000546987-01] | 6.68 |
| Cc1oc2ccc(O)c(CN(C)Cc3ccccc3)c2c1C(=O)Nc1cccc(C(F)(F)F)c1 [NCGC00115691-01] | 2.11 |
| COc1cccc(CN2CCC(N3CC(OCC4CC4)C34CCCCC4)CC2)n1 (stereo not shown) [NCGC00463412-01] | 4.22 |
| COc1ccccc1-c1ccc2ncc(Nc3ccc4[nH]ccc4c3)n2n1 [NCGC00412550-01] | 4.33 |
| CCOc1ccc(NC(=O)c2cnn3c2NC(c2cccc(OC)c2)=CC3c2ccccc2)cc1 (stereo not shown) [NCGC00121753-01] | 4.73 |
| COc1ccc(C)cc1-n1c(-c2ccc(Cl)cc2)cc2c1CC(C)(C)CC2=O [NCGC00110344-01] | 2.99 |
| C[S+](=O)([O-])c1cccc(-c2cnc3[nH]cc(CC(=O)NCc4cccnc4)c3c2)c1 [NCGC00412364-01] | 9.68 |
